How the values were obtained:
[1] = test system: GR-ST (B-Lymphoblastic Leukemia); assay: Bliss excess, mean over the matrix (fraction); higher = more synergy
Method in brief: (§1)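 Bliss excess equals the observed combination effect minus the expected value EA + EB − EA·EB, where EA and EB are the effects of each agent alone. Combination Emax is the second-highest inhibition within the matrix. Inhibition was scaled from CellTiter-Glo 2.0 luminescence, with 0 set by vehicle wells and 1 by blank wells, after 72 hours of two-drug dosing of cells plated in 1536-well plates.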

[2] = test system: SW837 (Colorectal Carcinoma); assay: as above
Method in brief: as §1

[3] = test system: BFTC-905 (Bladder Carcinoma); assay: as above
Method in brief: as §1

[4] = test system: L-540 (Hodgkin's Lymphoma); assay: as above
Method in brief: as §1

[5] = test system: MKN28 (Gastric Carcinoma); assay: as above
Method in brief: as §1

[6] = test system: ES8 (Ewing's Sarcoma); assay: as above
Method in brief: as §1

[7] = test system: NCI-H1792 (Lung Adenocarcinoma); assay: as above
Method in brief: as §1

[8] = test system: WIL2-NS (Non-Cancerous); assay: as above
Method in brief: as §1

[9] = test system: SR (Other Blood Carcinomas); assay: as above
Method in brief: as §1

[10] = test system: ES1 (Ewing's Sarcoma); assay: as above
Method in brief: as §1

[11] = test system: CAMA-1 (Breast Carcinoma); assay: as above
Method in brief: as §1

[12] = test system: BL-41 (Burkitt's Lymphoma); assay: as above
Method in brief: as §1

[13] = test system: DND-41 (T-Lymphoblastic Leukemia); assay: as above
Method in brief: as §1

[14] = test system: NCI-H2818 (Mesothelioma); assay: as above
Method in brief: as §1

[15] = test system: WM-115 (Melanoma); assay: as above
Method in brief: as §1

[16] = test system: SW1417 (Colorectal Carcinoma); assay: as above
Method in brief: as §1

[17] = test system: K-562 (Chronic Myelogenous Leukemia); assay: as above
Method in brief: as §1

[18] = test system: GR-ST (B-Lymphoblastic Leukemia); assay: combination Emax (second highest fraction inhibited in the dose matrix, 72 h); higher = more inhibition; extreme values may be limits of the assay
Method in brief: as §1

[19] = test system: SW837 (Colorectal Carcinoma); assay: as above
Method in brief: as §1

[20] = test system: BFTC-905 (Bladder Carcinoma); assay: as above
Method in brief: as §1

[21] = test system: L-540 (Hodgkin's Lymphoma); assay: as above
Method in brief: as §1

[22] = test system: MKN28 (Gastric Carcinoma); assay: as above
Method in brief: as §1

[23] = test system: ES8 (Ewing's Sarcoma); assay: as above
Method in brief: as §1

[24] = test system: NCI-H1792 (Lung Adenocarcinoma); assay: as above
Method in brief: as §1

[25] = test system: WIL2-NS (Non-Cancerous); assay: as above
Method in brief: as §1

[26] = test system: SR (Other Blood Carcinomas); assay: as above
Method in brief: as §1

[27] = test system: ES1 (Ewing's Sarcoma); assay: as above
Method in brief: as §1

[28] = test system: CAMA-1 (Breast Carcinoma); assay: as above
Method in brief: as §1

[29] = test system: BL-41 (Burkitt's Lymphoma); assay: as above
Method in brief: as §1

[30] = test system: DND-41 (T-Lymphoblastic Leukemia); assay: as above
Method in brief: as §1

[31] = test system: NCI-H2818 (Mesothelioma); assay: as above
Method in brief: as §1

[32] = test system: WM-115 (Melanoma); assay: as above
Method in brief: as §1

[33] = test system: SW1417 (Colorectal Carcinoma); assay: as above
Method in brief: as §1

[34] = test system: K-562 (Chronic Myelogenous Leukemia); assay: as above
Method in brief: as §1

C[C@@H](Nc1cc(F)cc(F)c1)c1cc(C(=O)N(C)C)cc2c(=O)cc(N3CCOCC3)oc12 [AZD8186] + C1CN(CCC1(C(=O)N[C@@H](CCO)C2=CC=C(C=C2)Cl)N)C3=NC=NC4=C3C=CN4 [AZD5363] (first compound max 10 µM, 7x7, partner max 10 µM)
Bliss excess [1]: -0.03 | Bliss excess [2]: -0.0386 | Bliss excess [3]: -0.0098 | Bliss excess [4]: -0.024 | Bliss excess [5]: -0.0504 | Bliss excess [6]: 0.0216 | Bliss excess [7]: -0.0066 | Bliss excess [8]: 0.0339 | Bliss excess [9]: -0.0412 | Bliss excess [10]: 0.0388 | Bliss excess [11]: 0.0234 | Bliss excess [12]: -0.0264 | Bliss excess [13]: 0.0141 | Bliss excess [14]: -0.017 | Bliss excess [15]: -0.0842 | Bliss excess [16]: -0.0038 | Bliss excess [17]: 0.0402 | combination Emax [18]: 0.556 | combination Emax [19]: 0.237 | combination Emax [20]: 0.423 | combination Emax [21]: 0.173 | combination Emax [22]: 0.107 | combination Emax [23]: 0.625 | combination Emax [24]: 0.344 | combination Emax [25]: 0.614 | combination Emax [26]: 0.297 | combination Emax [27]: 0.55 | combination Emax [28]: 0.712 | combination Emax [29]: 0.276 | combination Emax [30]: 0.193 | combination Emax [31]: 0.286 | combination Emax [32]: 0.645 | combination Emax [33]: 0.372 | combination Emax [34]: 0.253

C[C@@H](Nc1cc(F)cc(F)c1)c1cc(C(=O)N(C)C)cc2c(=O)cc(N3CCOCC3)oc12 [AZD8186] + CC(=O)c1c(C)c2cnc(Nc3ccc(N4CCNCC4)cn3)nc2n(C2CCCC2)c1=O [Palbociclib] (first compound max 10 µM, 7x7, partner max 10 µM)
Bliss excess [1]: 0.0215 | Bliss excess [2]: -0.0454 | Bliss excess [3]: 0.0553 | Bliss excess [4]: 0.0275 | Bliss excess [5]: -0.0287 | Bliss excess [6]: 0.0321 | Bliss excess [7]: 0.0608 | Bliss excess [8]: -0.0251 | Bliss excess [9]: 0.0382 | Bliss excess [10]: 0.074 | Bliss excess [11]: 0.0447 | Bliss excess [12]: -0.0114 | Bliss excess [13]: 0.0875 | Bliss excess [14]: 0.044 | Bliss excess [15]: 0.0109 | Bliss excess [16]: 0.0187 | Bliss excess [17]: 0.0479 | combination Emax [18]: 0.725 | combination Emax [19]: 0.213 | combination Emax [20]: 0.55 | combination Emax [21]: 0.267 | combination Emax [22]: 0.227 | combination Emax [23]: 0.676 | combination Emax [24]: 0.577 | combination Emax [25]: 0.771 | combination Emax [26]: 0.839 | combination Emax [27]: 0.722 | combination Emax [28]: 0.738 | combination Emax [29]: 0.245 | combination Emax [30]: 0.504 | combination Emax [31]: 0.389 | combination Emax [32]: 0.58 | combination Emax [33]: 0.395 | combination Emax [34]: 0.196

C[C@@H](Oc1cc(-c2cnn(C3CCNCC3)c2)cnc1N)c1c(Cl)ccc(F)c1Cl [Crizotinib] + CC1=C(C(=CC=C1)Cl)NC(=O)C2=CN=C(S2)NC3=CC(=NC(=N3)C)N4CCN(CC4)CCO [Dasatinib] (first compound max 10 µM, 7x7, partner max 2 µM)
Bliss excess [1]: 0.0129 | Bliss excess [2]: 0.0025 | Bliss excess [3]: 0.0479 | Bliss excess [4]: -0.0447 | Bliss excess [5]: -0.0096 | Bliss excess [6]: 0.0154 | Bliss excess [7]: 0.0376 | Bliss excess [8]: 0.105 | Bliss excess [9]: -0.0251 | Bliss excess [10]: -0.0149 | Bliss excess [11]: -0.0273 | Bliss excess [12]: 0.0338 | Bliss excess [13]: -0.0124 | Bliss excess [14]: 0.0145 | Bliss excess [15]: -0.0409 | Bliss excess [16]: 0.0352 | Bliss excess [17]: 0.0162 | combination Emax [18]: 0.955 | combination Emax [19]: 0.628 | combination Emax [20]: 0.97 | combination Emax [21]: 0.629 | combination Emax [22]: 0.673 | combination Emax [23]: 0.946 | combination Emax [24]: 0.928 | combination Emax [25]: 0.635 | combination Emax [26]: 1 | combination Emax [27]: 0.843 | combination Emax [28]: 0.184 | combination Emax [29]: 0.978 | combination Emax [30]: 0.951 | combination Emax [31]: 0.589 | combination Emax [32]: 0.49 | combination Emax [33]: 0.535 | combination Emax [34]: 0.95

C[C@@H](Oc1cc(-c2cnn(C3CCNCC3)c2)cnc1N)c1c(Cl)ccc(F)c1Cl [Crizotinib] + Cn1cnc2c(F)c(Nc3ccc(Br)cc3Cl)c(C(=O)NOCCO)cc21 [Selumetinib] (first compound max 10 µM, 7x7, partner max 10 µM)
Bliss excess [1]: -0.0439 | Bliss excess [2]: -0.0422 | Bliss excess [3]: -0.0138 | Bliss excess [4]: -0.0703 | Bliss excess [5]: 0.016 | Bliss excess [6]: -0.0482 | Bliss excess [7]: -0.022 | Bliss excess [8]: -0.026 | Bliss excess [9]: -0.0195 | Bliss excess [10]: -0.0239 | Bliss excess [11]: -0.042 | Bliss excess [12]: -0.0265 | Bliss excess [13]: 0.0194 | Bliss excess [14]: -0.0068 | Bliss excess [15]: -0.0547 | Bliss excess [16]: 0.0093 | Bliss excess [17]: 0.0366 | combination Emax [18]: 0.972 | combination Emax [19]: 0.562 | combination Emax [20]: 0.912 | combination Emax [21]: 0.553 | combination Emax [22]: 0.516 | combination Emax [23]: 0.921 | combination Emax [24]: 0.917 | combination Emax [25]: 0.485 | combination Emax [26]: 1 | combination Emax [27]: 0.843 | combination Emax [28]: 0.156 | combination Emax [29]: 1 | combination Emax [30]: 0.971 | combination Emax [31]: 0.329 | combination Emax [32]: 0.476 | combination Emax [33]: 0.608 | combination Emax [34]: 0.947
